Results: patent US20060117411A1, “Enhancing plant pathogen resistance via increasing BiP levels” (priority 1998, published 2006)

How the values were obtained:
PR1 mRNA [1] = assay: SA spraying of Arabidopsis WT and saiI mutant, Northern blot of PR1; assay type: in vivo, Arabidopsis thaliana; details: SA 5 mM
Procedure: WT and saiI mutants of the same ecotype were sprayed with SA (5 mM) and incubated in the light. Total RNA was extracted and probed with the PR1 and BiP gene from Arabidopsis. The induction of PR1 in WT Arabidopsis was detected 3 hours after SA-treatment and continued to increase until 8 hours (FIG. 10). […] As in tobacco plants, BiP mRNA levels increase prior to PR1 transcripts in SA treated Arabidopsis plants (FIG. 10) and diminish after prolonged incubations (data not shown).
Plants of Nicotiana tabacum cultivar Petit Havana (Maliga et al., 1973) were axenically grown in MS medium (Murashige and Skoog, 1962), 2% Sucrose in a temperature controlled room at 25° C. with a 16 h day/[…] regime and a light irradiance of 200 μE.m^−2.s^−1. Arabidopsis thaliana Nössen WT and saiI plants (Shah et al., 1997) were grown under the same conditions.
Plants were sprayed with 5 mM SA and 0.5% Tween 20 from all sides, ensuring contact on both sides of each leaf of the plant. Typically, 10 ml of the SA solution was sprayed onto each plant. Plants were then transferred from the 16 h day/8 h night regime to constant light regime.
(§1) Protoplasts RNAs were extracted as described by Jones et al., (1985). Leaves were ground in frozen liquid nitrogen and transferred to NTES buffer (0.1 M NaCl, 10 mM Tris pH 7.5, 1 mM EDTA, 1% SDS). Protoplasts samples were frozen in liquid nitrogen and thawed in NTES buffer. RNA was extracted after adding an equal volume of phenol/chloroform. Ethanol precipitation was carried out after incubation at −20° C. for 16 hours. The pellet was resuspended and RNA was selectively precipitated with LiCl (2M LiCl) for 2 hours on ice. The pellet was washed with 70% ethanol and resuspended in diethyl pyrocarbonate-treated water. Gel blots of total RNA denatured in formamide and formaldehyde were prepared. RNA was blotted onto Hybond-N membrane (Amersham Corp), as described by the manufacturer. […]

PR1 mRNA [2] = assay: SA spraying of tobacco plants, Northern blot of PR1 mRNA; assay type: in vivo, Nicotiana tabacum
Procedure: It has been shown that SA is involved in the induction of PR genes (reviewed by Malamy and Klessig, 1992) and that this signal molecule also induces the expression of ER chaperones (Denecke et al, 1995). We wanted to investigate whether ER chaperone induction is a consequence of the high synthesis rates of PR genes and used BiP as a model system. Tobacco plants were sprayed with SA (5 mM) and the exact timing of the SA-mediated induction of PR-gene PRI was compared to that of BiP. PR1 was chosen as a representative marker for SA-mediated induction of PR genes as its response to SA is faster and more pronounced than that of acidic chitinase, basic chitinase and basic β-1.3 glucanase (Vidal et al, 1997). […] In contrast SA-induced transcription of PR1 starts only after 6-8 hours and continues to accumulate upto 16 hours after treatment. At this time-point, BiP mRNA levels start to decrease again. We have shown previously that PR1 continuous to accumulate until 48 hours after SA treatment using the same experimental system (Vidal et al, 1997). […] BiP protein levels were also shown to increase (FIG. 7B), with a significant increase noticeable after 4-6 hours of induction.
To investigate further similarities and differences in the SA-mediated induction of BiP and PR genes, we tested if the presence of light is required for the induction. The rationale for this experiment was derived from the observation that SA inhibits catalase, resulting in an increase of active oxygen species in the plant, which would then induce PR genes such as PR1 (Chen et al, 1993). […]
We have shown that the SA-induced expression of PR1 is inhibited in a concentration dependent fashion by the presence of Erwinia carotovora culture filtrate containing cell wall-degrading enzymes (Vidal et al, 1997). […] Total RNA was extracted and the expression of chaperones was determined in relation to PR1. […]

BiP mRNA = assay: Tunicamycin treatment of tobacco protoplasts, Northern blot of BiP; assay type: cell-based, Nicotiana tabacum; details: tunicamycin 20 μg/mL, 2.5 hrs
Procedure: To compare the CDE- and UPR-mediated induction of BiP, we wanted to test if both stimuli are additive. […] This is not surprising as protoplasts are prepared with CDEs. These protoplasts were then treated with tunicanycin, to superimpose the UPR onto the CDE response. […] The additional ER stress could trap BiP in malfolded protein complexes, thus making it unavailable to promote PR protein synthesis on the rough ER.
as §1

| Compound | PR1 induction during SA-treatment in saiI mutant (PR1 mRNA [1]; Arabidopsis saiI mutant) | time after SA-treatment at which induction of PR1 is detected (PR1 mRNA [1]; WT Arabidopsis, light) [h] | time until which PR1 induction continues to increase (PR1 mRNA [1]; WT Arabidopsis, light) [h] | PR1 induction during SA-treatment in the absence of light (PR1 mRNA [2]; SA 5 mM, 6 and 16 hours, dark vs light) | time after which SA-induced transcription of PR1 starts (PR1 mRNA [2]; sprayed with SA 5 mM) [h] | time up to which PR1 continues to accumulate (PR1 mRNA [2]; sprayed with SA 5 mM) [h] | BiP induction on top of the CDE response in protoplasts (BiP mRNA) |
| --- | --- | --- | --- | --- | --- | --- | --- |
| O=C(O)c1ccccc1O [SA, Salicylic Acid] | completely abolished | 3 | ≤ 8 | almost completely abolished | 6 to 8 | ≤ 16 |  |
| tunicamycin |  |  |  |  |  |  | further induction |
